Reference: US8436043B2 (Takeda Pharmaceutical Company Limited, priority 2008, dated 2013)

Target: T1, human glucagon receptor (Homo sapiens, UniProt P47871)
T1 construct: made in house; host or cells: FreeStyle CHO cells, transient transfection with pMSRαneo/hGCGR; membrane fraction (35,000 rpm pellet)
Test: Glucagon binding inhibitory activity ([125I]-glucagon binding to glucagon receptor membrane protein)
Settings: for inhibition at 10 µM: test compound 10 μM, 0.4% DMSO = 0%, non-labeled glucagon 1 μM = 100%, read-out: inhibitory rate (%) at 10 μM; for IC50: human glucagon receptor membrane protein, [125I]-glucagon, 90 min room temperature
Summary of the method: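 Receptor source was a membrane fraction of transiently transfected CHO cells bearing human receptor; 90 min room-temperature binding, filtration harvest, scintillation counting.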

T1 sequence (P47871 26-477): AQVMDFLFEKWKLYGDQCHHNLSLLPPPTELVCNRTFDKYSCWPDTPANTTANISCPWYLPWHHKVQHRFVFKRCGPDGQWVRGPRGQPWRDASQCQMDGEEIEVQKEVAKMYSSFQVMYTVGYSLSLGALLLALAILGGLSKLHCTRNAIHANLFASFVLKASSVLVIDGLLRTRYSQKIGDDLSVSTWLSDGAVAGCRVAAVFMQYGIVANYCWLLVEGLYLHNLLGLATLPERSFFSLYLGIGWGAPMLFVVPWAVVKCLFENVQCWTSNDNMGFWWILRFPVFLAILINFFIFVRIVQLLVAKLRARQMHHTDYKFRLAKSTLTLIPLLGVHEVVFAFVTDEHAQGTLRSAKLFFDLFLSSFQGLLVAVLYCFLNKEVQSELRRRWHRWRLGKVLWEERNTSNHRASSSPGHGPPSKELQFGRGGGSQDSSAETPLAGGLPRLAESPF

SMILES	inhibition at 10 µM	IC50
COc1ccccc1-n1cc(C)c(C(Nc2ccc(C(=O)N(C)CCC(=O)O)cc2)C2CCCCC2)n1 (stereo not shown) [Example 77, 3-[{[4-({cyclohexyl[1-(2-methoxyphenyl)-4-methyl-1H-pyrazol-3-yl]methyl}amino)phenyl]carbonyl}(methyl)amino]propanoic acid]	55%	–
CCc1nn(-c2cccc(OC)c2)cc1C(Nc1ccc(C(=O)N(C)CCC(=O)O)cc1)C1CCCCC1 (stereo not shown) [Example 78, 3-[{[4-({cyclohexyl[3-ethyl-1-(3-methoxyphenyl)-1H-pyrazol-4-yl]methyl}amino)phenyl]carbonyl}(methyl)amino]propanoic acid]	69%	–
COc1cccc(-n2cc(C(Nc3ccc(C(=O)N(C)CCC(=O)O)cc3)C3CCCCC3)c(C(C)C)n2)c1 (stereo not shown) [Example 79, 3-[{[4-({cyclohexyl[1-(3-methoxyphenyl)-3-(1-methylethyl)-1H-pyrazol-4-yl]methyl}amino)phenyl]carbonyl}(methyl)amino]propanoic acid]	67%	–
COc1cc(OC)cc(-n2cc(C(Nc3ccc(C(=O)N(C)CCC(=O)O)cc3)C3CCCCC3)c(C)n2)c1 (stereo not shown) [Example 81, 3-[{[4-({cyclohexyl[1-(3,5-dimethoxyphenyl)-3-methyl-1H-pyrazol-4-yl]methyl}amino)phenyl]carbonyl}(methyl)amino]propanoic acid]	82%	–
COc1cc(OC)cc(-n2cc(C(Nc3ccc(C(=O)NCCC(=O)O)cc3)C3CCCCC3)c(C)n2)c1 (stereo not shown) [Example 82, 3-({[4-({cyclohexyl[1-(3,5-dimethoxyphenyl)-3-methyl-1H-pyrazol-4-yl]methyl}amino)phenyl}carbonyl]amino)propanoic acid]	78%	–
CCOc1cccc(-n2cc(C(Nc3ccc(C(=O)N(C)CCC(=O)O)cc3)C3CCCCC3)c(CC)n2)c1 (stereo not shown) [Example 83, 3-[{[4-({cyclohexyl[1-(3-ethoxyphenyl)-3-ethyl-1H-pyrazol-4-yl]methyl}amino)phenyl]carbonyl}(methyl)amino]propanoic acid]	78%	–
CCOc1cccc(-n2cc(C(Nc3ccc(C(=O)NCCC(=O)O)cc3)C3CCCCC3)c(CC)n2)c1 (stereo not shown) [Example 84, 3-({[4-({cyclohexyl[1-(3-ethoxyphenyl)-3-ethyl-1H-pyrazol-4-yl]methyl}amino)phenyl]carbonyl}amino)propanoic acid]	76%	–
CCOc1cccc(-n2cc(C(CC(C)C)Nc3ccc(C(=O)N(C)CCC(=O)O)cc3)c(CC)n2)c1 (stereo not shown) [Example 85, 3-[{[4-({1-[1-(3-ethoxyphenyl)-3-ethyl-1H-pyrazol-4-yl]-3-methylbutyl}amino)phenyl]carbonyl}(methyl)amino]propanoic acid]	68%	–
CCOc1cccc(-n2cc(C(CC(C)C)Nc3ccc(C(=O)NCCC(=O)O)cc3)c(CC)n2)c1 (stereo not shown) [Example 86, 3-({[4-({1-[1-(3-ethoxyphenyl)-3-ethyl-1H-pyrazol-4-yl]-3-methylbutyl}amino)phenyl]carbonyl}amino)propanoic acid]	76%	–
CCc1nn(-c2cc(F)cc(F)c2)cc1C(Nc1ccc(C(=O)N(C)CCC(=O)O)cc1)C1CCCCC1 (stereo not shown) [Example 87, 3-[{[4-({cyclohexyl[1-(3,5-difluorophenyl)-3-ethyl-1H-pyrazol-4-yl]methyl}amino)phenyl]carbonyl}(methyl)amino]propanoic acid]	64%	–
CCc1nn(-c2cc(F)cc(F)c2)cc1C(Nc1ccc(C(=O)NCCC(=O)O)cc1)C1CCCCC1 (stereo not shown) [Example 88, 3-({[4-({cyclohexyl[1-(3,5-difluorophenyl)-3-ethyl-1H-pyrazol-4-yl]methyl}amino)phenyl]carbonyl}amino)propanoic acid]	71%	–
COCc1nn(-c2cc(C(F)(F)F)ccn2)cc1C(Nc1ccc(C(=O)N(C)CCC(=O)O)cc1)C1CCCCC1 (stereo not shown) [Example 89, 3-[({4-[(cyclohexyl{3-(methoxymethyl)-1-[4-(trifluoromethyl)pyridin-2-yl]-1H-pyrazol-4-yl}methyl)amino]phenyl}carbonyl)(methyl)amino]propanoic acid]	62%	–
COCc1nn(-c2cccc(C(F)(F)F)n2)cc1C(Nc1ccc(C(=O)N(C)CCC(=O)O)cc1)C1CCCCC1 (stereo not shown) [Example 90, 3-[({4-[(cyclohexyl{3-(methoxymethyl)-1-[6-(trifluoromethyl)pyridin-2-yl]-1H-pyrazol-4-yl}methyl)amino]phenyl}carbonyl)(methyl)amino]propanoic acid]	66%	–
COCc1nn(-c2cccc(C(F)(F)F)n2)cc1C(Nc1ccc(C(=O)NCCC(=O)O)cc1)C1CCCCC1 (stereo not shown) [Example 91, 3-[({4-[(cyclohexyl{3-(methoxymethyl)-1-[6-(trifluoromethyl)pyridin-2-yl]-1H-pyrazol-4-yl}methyl)amino]phenyl}carbonyl)amino]propanoic acid]	71%	–
CCOc1cccc(-n2cc(C(Nc3ccc(C(=O)NCC(C)C(=O)O)cc3)C3CCCCC3)c(CC)n2)c1 (stereo not shown) [Example 92, 3-({[4-({cyclohexyl[1-(3-ethoxyphenyl)-3-ethyl-1H-pyrazol-4-yl]methyl}amino)phenyl]carbonyl}amino)-2-methylpropanoic acid]	56%	–
O=C(O)CCNC(=O)c1ccc(NC(c2csc3ccccc23)C2CCCCC2)cc1 (stereo not shown) [Example A1, 3-{[(4-{[1-benzothiophen-3-yl(cyclohexyl)methyl]amino}phenyl)carbonyl]amino}propanoic acid]	76%	–
CN(CCC(=O)O)C(=O)c1ccc(NC(c2csc3ccccc23)C2CCCCC2)cc1 (stereo not shown) [Example A2, 3-{[(4-{[1-benzothiophen-3-yl(cyclohexyl)methyl]amino}phenyl)carbonyl](methyl)amino}-propanoic acid]	64%	–
Cn1c(C(Nc2ccc(C(=O)NCCC(=O)O)cc2)C2CCCCC2)nc2ccccc21 (stereo not shown) [Example A3, 3-{[(4-{[cyclohexyl(1-methyl-1H-benzimidazol-2-yl)methyl]amino}phenyl)carbonyl]amino}propanoic acid]	55%	1.7 µM
CN(CCC(=O)O)C(=O)c1ccc(NC(c2cc3ccccc3o2)C2CCCCC2)cc1 (stereo not shown) [Example A4, 3-{[(4-{[1-benzofuran-2-yl(cyclohexyl)methyl]amino}phenyl)carbonyl](methyl)amino}-propanoic acid]	66%	–

Next, values leading:

inhibition at 10 µM	IC50	SMILES
77%	–	CN(CCC(=O)O)C(=O)c1ccc(NC(c2cc3ccccc3s2)C2CCCCC2)cc1 (stereo not shown) [Example A5, 3-{[(4-{[1-benzothiophen-2-yl(cyclohexyl)methyl]amino}phenyl)carbonyl](methyl)amino}-propanoic acid]
87%	–	O=C(O)CCNC(=O)c1ccc(NC(c2cc3ccccc3s2)C2CCCCC2)cc1 (stereo not shown) [Example A6, 3-{[(4-{[1-benzothiophen-2-yl(cyclohexyl)methyl]amino}phenyl)carbonyl]amino}propanoic acid]
60%	1.8 µM	CN(CCC(=O)O)C(=O)c1ccc(NC(c2nn(C)c3ccccc23)C2CCCCC2)cc1 (stereo not shown) [Example A7, 3-{[(4-{[cyclohexyl(1-methyl-1H-indazol-3-yl)methyl]amino}phenyl)carbonyl](methyl)amino}propanoic acid]
78%	–	Cc1sc2ccccc2c1C(Nc1ccc(C(=O)NCCC(=O)O)cc1)C1CCCCC1 (stereo not shown) [Example A8, 3-{[(4-{[cyclohexyl(2-methyl-1-benzothiophen-3-yl)methyl]amino}phenyl)carbonyl]amino}propanoic acid]
67%	–	Cc1sc2ccccc2c1C(Nc1ccc(C(=O)N(C)CCC(=O)O)cc1)C1CCCCC1 (stereo not shown) [Example A9, 3-{[(4-{[cyclohexyl(2-methyl-1-benzothiophen-3-yl)methyl]amino}phenyl)carbonyl](methyl)amino}propanoic acid]
80%	–	Cc1c(C(Nc2ccc(C(=O)NCCC(=O)O)cc2)C2CCCCC2)sc2ccccc12 (stereo not shown) [Example A10, 3-{[(4-{[cyclohexyl(3-methyl-1-benzothiophen-2-yl)methyl]amino}phenyl)carbonyl]amino}propanoic acid]
74%	–	O=C(O)CCNC(=O)c1ccc(NC(c2cc3cc(C(F)(F)F)ccc3s2)C2CCCCC2)cc1 (stereo not shown) [Example A11, 3-({[4-({cyclohexyl[5-(trifluoromethyl)-1-benzothiophen-2-yl]methyl}amino)phenyl]carbonyl}amino)propanoic acid]
72%	0.21 µM	O=C(O)CCNC(=O)c1ccc(NC(c2cc3ccc(C(F)(F)F)cc3s2)C2CCCCC2)cc1 (stereo not shown) [Example A12, 3-({[4-({cyclohexyl[6-(trifluoromethyl)-1-benzothiophen-2-yl]methyl}amino)phenyl]carbonyl}amino)propanoic acid]
85%	–	Cc1c(C(Nc2ccc(C(=O)N(C)CCC(=O)O)cc2)C2CCCCC2)sc2ccccc12 (stereo not shown) [Example A13, 3-{[(4-{[cyclohexyl(3-methyl-1-benzothiophen-2-yl)methyl]amino}phenyl)carbonyl](methyl)amino}propanoic acid]
73%	–	O=C(O)CCNC(=O)c1ccc(NC(c2nn(-c3ccccc3)c3ccccc23)C2CCCCC2)cc1 (stereo not shown) [Example A14, 3-{[(4-{[cyclohexyl(1-phenyl-1H-indazol-3-yl)methyl]amino}phenyl)carbonyl]amino}propanoic acid]
72%	–	CN(CCC(=O)O)C(=O)c1ccc(NC(c2nn(-c3ccccc3)c3ccccc23)C2CCCCC2)cc1 (stereo not shown) [Example A15, 3-{[(4-{[cyclohexyl(1-phenyl-1H-indazol-3-yl)methyl]amino}phenyl)carbonyl](methyl)amino}propanoic acid]
74%	–	Cc1c(C(Nc2ccc(C(=O)N(C)CCC(=O)O)cc2)C2CCCCC2)oc2ccccc12 (stereo not shown) [Example A16, 3-{[(4-{[cyclohexyl(3-methyl-1-benzofuran-2-yl)methyl]amino}phenyl)carbonyl](methyl)amino}propanoic acid]
